{
  "source": "patent US9861610B2",
  "about": "“Process for selective extraction of bioactive and bioavailable cinnamon polyphenols and procyanidin oligomers and a stable composition thereof” (AKAY FLAVOURS & AROMATICS PVT LTD., priority 2011, dated 2018)",
  "system": "streptozotocin induced diabetic rats",
  "assay": "Serum insulin levels (chemiluminescence method, human specific kit)",
  "conditions": "30 days treatment",
  "data": [
    {"smiles": "COc1ccc(Cl)cc1C(=O)NCCc1ccc(S(=O)(=O)NC(=O)NC2CCCCC2)cc1", "note": "[Glibenclamide]", "values": [
      {"measurement": "insulin levels", "result": 0.4, "unit": "μIU/ml"}
    ]}
  ]
}
